Data taken from US20260199535A1, “PCTA derivatives, conjugates thereof and uses thereof” (NOVARTIS AG, priority 2022, published 2026).
Read-outs that look alike come from different tables or passages of the source. Values belong to the molecule of their own block, whether it stands above or below them.

Tests used:
[1] = crosslinker bond, 12-membered ring, CH3CN, 60.0 °C
[2] = crosslinker bond; 12-membered ring; intermediate G (1 eq)/DIPEA (5 eq); CH3CN; 15.6 mM; 60.0 °C
[3] = Buffer stability of Example 17 radiolabeled with ^68GaCl3; format: physicochemical; settings: ^68Ga-labeled, sodium acetate/acetic acid reaction buffer, t=4 hours; RCP at t=0 75%
Protocol: A solution of sodium acetate trihydrate in water 1.5 M (740.0 μL), acetic acid (260.0 μL) and (((1S)-5-((2R)-2-amino-3-((2,5-dioxo-1-(4-(3,6,9-tris(carboxymethyl)-3,6,9-triaza-1(2,6)-pyridinacyclodecaphane-4-yl)butyl)pyrrolidin-3-yl)thio)propanamido)-1-carboxypentyl)carbamoyl)-L-glutamic acid (2 mM; 1.907 mg/mL; […]) were added to a 8 mL glass V-vial. This vial was sealed, the vacuum needle and the ^68Ga/HCl 0.1M needle were connected to the vial. The gallium generator was eluted to the reaction vial (approximately 260 MBq [^68Ga]GaCl3 in HCl 0.1M, 1.1 mL). The vacuum needle and the ^68Ga/HCl 0.1M needle were disconnected from the reaction vial. After shaking (600 rpm) at 45° C. for 30 min, the reaction mixture was left cooling down for few minutes. The radiochemical purity and stability were assessed using HPLC-1 conditions: Waters; column: Phenomenex Luna; particle size 2.5 μm; size: 4.6×100 mm; flow rate: 1 mL/min; mobile phase A: H2O+0.1% TFA and B: CH3CN; gradient: 10 to 80% solvent B in 9 min. RCP at t=0, 75% and stability t=4 hours, 74%.

[4] = Buffer stability of Example 17 radiolabeled with ^177LuCl3; format: physicochemical; settings: ^177Lu-labeled, formulation diluted with PBS, RCP at t=0 93%
Protocol: To a mixture of sodium acetate in water (35.0 μL, 1.5 M), ascorbic acid in H2O (35.00 μL, 0.04 M), ethanol (58.5 μL) and acetic acid (1.5 μL) was added [^177Lu]LuCl3 ([…], 0.04 M HCl, 58.2 MBq). A solution of (((1S)-5-((2R)-2-amino-3-((2,5-dioxo-1-(4-(3,6,9-tris(carboxymethyl)-3,6,9-triaza-1(2,6)-pyridinacyclodecaphane-4-yl)butyl)pyrrolidin-3-yl)thio)propanamido)-1-carboxypentyl)carbamoyl)-L-glutamic acid (7.9 μL) of a 0.2 mM in water was added. After shaking (450 rpm) at 95° C. for 15 min, the reaction mixture was left cooling down for few minutes. The solution was diluted with 385 μl of PBS to keep the final formulation with EtOH below 9%. The radiochemical purity and stability were assessed using HPLC-1 conditions: Waters; column: phenomenex Luna; particle size 2.5 μm; size: 4.6×100 mm; flow rate: 1 mL/min; mobile phase A: H2O+0.1% TFA and B: CH3CN; gradient: 10 to 80% solvent B in 9 min.

Molecule: Tetra-tert-butyl 2,2′-(1^4-(3-((tert-butoxycarbonyl)amino)propoxy)-3,7-diaza-1(2,6)-pyridina-5(1,3)-benzenacyclooctaphane-3,7-diyl)(2R,2′R)-disuccinate
ring closure, isolated yield ([1]; 2,6-bis(bromomethyl)pyridine (1 eq)/DIPEA (5 eq), 32.6 mM): 55.3%

Molecule: Tetra-tert-butyl 2,2′-(1^4-(methoxycarbonyl)-6-oxa-3,9-diaza-1(2,6)-pyridinacyclodecaphane-3,9-diyl)(2R,2′R)-disuccinate
ring closure, isolated yield ([1]; methyl 2,6-bis(bromomethyl)isonicotinate (1 eq)/DIPEA (5 eq), 17.9 mM): 57.1%

Molecule: Tri-tert-butyl 2,2′,2″-(1^4-(3-((tert-butoxycarbonyl)amino)propoxy)-3,6,9-triaza-1(2,6)-pyridinacyclodecaphane-3,6,9-triyl)(2S,2′S,2″S)-tripropionate
ring closure, yield after HPLC [2]: 52%

stability (radiochemical purity by HPLC) [3]: 74%
stability (radiochemical purity by HPLC) ([4]; t=4 hours): 94%
stability (radiochemical purity by HPLC) ([4]; t=8 hours): 95%
stability (radiochemical purity by HPLC) ([4]; t=24 hours): 94%
Molecule: N[C@@H](CSC1CC(=O)N(CCCCC2CN(CC(=O)O)CCN(CC(=O)O)Cc3cccc(n3)CN2CC(=O)O)C1=O)C(=O)NCCCC[C@H](NC(=O)N[C@@H](CCC(=O)O)C(=O)O)C(=O)O (stereo partly drawn) [Example 17, (((1S)-5-((2R)-2-amino-3-((2,5-dioxo-1-(4-(3,6,9-tris(carboxymethyl)-3,6,9-triaza-1(2,6)-pyridinacyclodecaphane-4-yl)butyl)pyrrolidin-3-yl)thio)propanamido)-1-carboxypentyl)carbamoyl)-L-glutamic acid]

Molecule: CC(C)(C)OC(=O)C[C@@H](NCCOCCN[C@H](CC(=O)OC(C)(C)C)c1ccccn1)C(=O)OC(C)(C)C
ring closure, isolated yield ([1]; the molecule shown is the open-chain precursor, methyl 2,6-bis(bromomethyl)isonicotinate (1 eq)/DIPEA (5 eq), 20.9 mM): 48.7%
